Where two headings read alike, the source gives them in different places.
What was measured:
[1] = tested on: MV-4-11 cells; experiment: Antiproliferative activity against MV-4-11 cells (CellTiter-Glo, 72 h); assay type: cell-based; details: Homo sapiens, read-out: Antiproliferative activity IC50
Protocol: MV411 cells in the logarithmic growth phase were diluted in a medium (RPMI+10% FBS) and plated at 5,000 cells/well in 96-well whole black plates (WHB) with 50 μL/well. After plating, the plates were incubated in an incubator at 5% CO2 and 37° C. for 24 h before the compounds were added. The compounds were prepared into a 10 mM stock solution in DMSO and diluted in a culture medium to the desired concentrations (a final DMSO concentration of 0.2%). […] The plates were incubated at 5% CO2 and 37° C. for 72 h. After the incubation was complete, the plates were equilibrated at room temperature for 30 min. CellTiter-Glo® Reagent (Promega G7573) was added at 100 μL/well. The plates were shaken for 12 min on a microplate shaker. The luminescence value was measured at room temperature by the GloMax navigator (Promega GM2010).

[2] = molecular target: T1, GSPT1 protein (Homo sapiens, UniProt P15170); experiment: Degradation of GSPT1 protein in NB-4 cells (Western blot); assay type: cell-based; details: for inhibition at 1 µM: read-out: GSPT1 degradation
T1 construct: The whole cell lysate was prepared using a RIPA lysis buffer; endogenous in cells; host or cells: NB-4 cells
T1 sequence (P15170 whole entry): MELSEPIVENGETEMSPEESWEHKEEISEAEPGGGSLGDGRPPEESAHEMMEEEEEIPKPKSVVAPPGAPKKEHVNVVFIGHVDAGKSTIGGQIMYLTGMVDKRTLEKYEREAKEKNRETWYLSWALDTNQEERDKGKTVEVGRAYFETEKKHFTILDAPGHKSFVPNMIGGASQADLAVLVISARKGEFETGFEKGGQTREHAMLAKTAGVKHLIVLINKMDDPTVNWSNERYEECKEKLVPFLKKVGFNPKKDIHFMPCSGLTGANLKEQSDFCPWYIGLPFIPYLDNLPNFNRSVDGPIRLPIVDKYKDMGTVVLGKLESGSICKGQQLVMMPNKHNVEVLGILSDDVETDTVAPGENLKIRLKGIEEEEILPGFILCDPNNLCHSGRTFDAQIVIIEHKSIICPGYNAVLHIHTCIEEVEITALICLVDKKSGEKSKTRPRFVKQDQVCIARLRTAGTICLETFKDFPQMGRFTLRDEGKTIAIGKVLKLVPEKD
Protocol: 150 μL of DMSO and the compounds (1 μM) were added, and the mixture was incubated in an incubator at 5% CO2 and 37° C. for 6 h. The cells were centrifuged, and the culture medium was discarded. PBS was added for washing and then discarded. The whole cell lysate was prepared using a RIPA lysis buffer containing a protease inhibitor cocktail and a phosphatase inhibitor, and incubated on ice for 30 min. The mixture was centrifuged, and the cell debris was discarded. The whole cell lysate supernatant was collected and transferred to a fresh EP tube. Samples were prepared using a loading buffer after a BCA protein assay. The samples were incubated in a metal bath at 100° C. for 10 min.
The samples were electrophoretically separated from proteins on a 4-20% precast gel (SDS-PAGE gel), transferred to a PVDF membrane, blocked with 5% NFDM/TBST for 1 h at room temperature, co-incubated overnight at 4° C. with the primary antibody, and co-incubated for 2 h at room temperature with the secondary antibody on the next day. The signals were detected on the […]™ imaging system.

Compound	IC50 ([1]; MV4-11, MV-4-11 cells, 72 h) [nM]	inhibition at 1 µM ([2]; NB-4 cells, compound 1 μM, 6 h) [%]	other results
N#Cc1ccc2c(c1F)CN(C1CCC(=O)NC1=O)C2=O (stereo not drawn) [FDAB-1]	> 1000	< 25	–
NCc1ccc2c(c1F)CN(C1CCC(=O)NC1=O)C2=O (stereo not drawn) [FDAB-3]	> 1000	< 25	–
N#Cc1cc2c(cc1F)C(=O)N(C1CCC(=O)NC1=O)C2 (stereo not drawn) [FDAB-4]	> 1000	< 25	–
N#Cc1cc(F)c2c(c1)CN(C1CCC(=O)NC1=O)C2=O (stereo not drawn) [FDAB-7]	> 1000	< 25	–
NCc1cc(F)c2c(c1)CN(C1CCC(=O)NC1=O)C2=O (stereo not drawn) [FDAB-9]	> 1000	< 25	–
N#Cc1ccc2c(c1Cl)CN(C1CCC(=O)NC1=O)C2=O (stereo not drawn) [FDAB-10]	> 1000	< 25	–
NCc1ccc2c(c1Cl)CN(C1CCC(=O)NC1=O)C2=O (stereo not drawn) [FDAB-12]	> 1000	< 25	–
NCc1cc(F)cc2c1CN(C1CCC(=O)NC1=O)C2=O (stereo not drawn) [FDAB-17]	100 to 1000	< 25	–
[2H]c1c([2H])c(C(=O)NCc2ccc3c(c2F)CN(C2CCC(=O)NC2=O)C3=O)c([2H])c([2H])c1Cl (stereo not drawn) [FDAB-18]	–	–	IC50 ([1]; MV4-11, 72 h): 10 to 100 nM; inhibition at 1 µM ([2]; NB-4, 6 h): > 80%
O=C1CCC(N2Cc3cc(CNC(=O)c4cc5ccccc5o4)c(F)cc3C2=O)C(=O)N1 (stereo not drawn) [FDAB-19]	1 to 10	> 80	–
O=C1CCC(N2Cc3cc(CNC(=O)c4cc5cc(Cl)ccc5o4)c(F)cc3C2=O)C(=O)N1 (stereo not drawn) [FDAB-20]	1 to 10	> 80	–
O=C1CCC(N2Cc3cc(CNC(=O)c4cc5ccccc5o4)cc(F)c3C2=O)C(=O)N1 (stereo not drawn) [FDAB-21]	> 1000	< 25	–
O=C1CCC(N2Cc3cc(CNC(=O)c4cc5cc(Cl)ccc5o4)cc(F)c3C2=O)C(=O)N1 (stereo not drawn) [FDAB-22]	> 1000	< 25	–
O=C1CCC(N2Cc3cc(CNC(=O)c4cc5ccccc5[nH]4)c(F)cc3C2=O)C(=O)N1 (stereo not drawn) [FDAB-24]	1 to 10	> 80	–
O=C1CCC(N2Cc3cc(CNC(=O)c4nc5ccccc5s4)c(F)cc3C2=O)C(=O)N1 (stereo not drawn) [FDAB-32]	10 to 100	> 80	–
O=C1CCC(N2Cc3cc(CNC(=O)c4nc5ccccc5[nH]4)c(F)cc3C2=O)C(=O)N1 (stereo not drawn) [FDAB-33]	> 1000	< 25	–
O=C1CCC(N2Cc3cc(CNC(=O)c4cc5cc(F)ccc5o4)c(F)cc3C2=O)C(=O)N1 (stereo not drawn) [FDAB-35]	10 to 100	50 to 80	–

Compound	IC50 ([1]; MV4-11, MV-4-11 cells, 72 h) [nM]	inhibition at 1 µM ([2]; NB-4 cells, compound 1 μM, 6 h) [%]	other results
O=C1CCC(N2Cc3cc(CNC(=O)c4ccc(Cl)cn4)c(F)cc3C2=O)C(=O)N1 (stereo not drawn) [FDAB-57]	–	–	GSPT1 degradation ([2]; NB-4 cells, compound 1 μM, 6 h): D (D denotes a percentage of degradation less than 25%)
CC(C)(C)c1ccc(C(=O)NCc2ccc3c(c2F)CN(C2CCC(=O)NC2=O)C3=O)c(N)c1 (stereo not drawn) [FDAB-172]	< 1	–	–
CC(C)(C)c1ccc(C(=O)NCc2ccc3c(c2F)CN(C2CCC(=O)NC2=O)C3=O)cc1O (stereo not drawn) [FDAB-173]	< 1	–	–
CC(C)(CN)c1ccc(C(=O)NCc2ccc3c(c2F)CN(C2CCC(=O)NC2=O)C3=O)cc1 (stereo not drawn) [FDAB-174]	10 to 100	–	–
NCc1ccc(-c2ccc(C(=O)NCc3ccc4c(c3F)CN(C3CCC(=O)NC3=O)C4=O)cc2)cc1 (stereo not drawn) [FDAB-175]	< 1	–	–
Nc1cc(-c2ccccc2)ccc1C(=O)NCc1ccc2c(c1F)CN(C1CCC(=O)NC1=O)C2=O (stereo not drawn) [FDAB-176]	1 to 10	–	–
Nc1ccc(-c2ccc(C(=O)NCc3ccc4c(c3F)CN(C3CCC(=O)NC3=O)C4=O)cc2)cc1 (stereo not drawn) [FDAB-177]	< 1	–	–
COc1cc(C(=O)NCc2ccc3c(c2F)CN(C2CCC(=O)NC2=O)C3=O)c(N)cc1OCc1ccccc1 (stereo not drawn) [FDAB-178]	< 1	–	–
O=C1CCC(N2Cc3c(ccc(CNC(=O)c4ccc(OCc5ccccc5)c(O)c4)c3F)C2=O)C(=O)N1 (stereo not drawn) [FDAB-179]	< 1	–	–
CC(CCC(=O)NCc1ccc2c(c1F)CN(C1CCC(=O)NC1=O)C2=O)(c1ccc(O)cc1)c1ccc(O)cc1 (stereo not drawn) [FDAB-180]	10 to 100	–	–
N[C@@H](CC(=O)NCc1ccc2c(c1F)CN(C1CCC(=O)NC1=O)C2=O)C(c1ccccc1)c1ccccc1 (stereo partly drawn) [FDAB-181]	1 to 10	–	–
NCCc1ccc(NC(=O)NCc2ccc3c(c2F)CN(C2CCC(=O)NC2=O)C3=O)cc1Cl (stereo not drawn) [FDAB-182]	1 to 10	–	–
O=C1CCC(N2Cc3c(ccc(CNC(=O)Nc4ccc(CCO)c(Cl)c4)c3F)C2=O)C(=O)N1 (stereo not drawn) [FDAB-183]	< 1	–	–
Nc1ccc(-c2ccc(C#CC(=O)NCc3ccc4c(c3F)CN(C3CCC(=O)NC3=O)C4=O)cc2)cc1 (stereo not drawn) [FDAB-184]	< 1	–	–
O=C(C#Cc1ccc(-c2ccc(O)cc2)cc1)NCc1ccc2c(c1F)CN(C1CCC(=O)NC1=O)C2=O (stereo not drawn) [FDAB-186]	< 1	–	–
O=C(C#Cc1ccc(-c2ccc(CCO)cc2)cc1)NCc1ccc2c(c1F)CN(C1CCC(=O)NC1=O)C2=O (stereo not drawn) [FDAB-187]	< 1	–	–
NCCc1ccc(-c2ccc(C#CC(=O)NCc3ccc4c(c3F)CN(C3CCC(=O)NC3=O)C4=O)cc2)cc1 (stereo not drawn) [FDAB-188]	1 to 10	–	–

Continued, in another order:

IC50 ([1]; MV4-11, MV-4-11 cells, 72 h) [nM]	inhibition at 1 µM ([2]; NB-4 cells, compound 1 μM, 6 h) [%]	Compound	other results
> 1000	< 25	CC(C)(C)OC(=O)NCc1ccc2c(c1F)CN(C1CCC(=O)NC1=O)C2=O (stereo not drawn) [FDAB-2]	–
> 1000	< 25	CC(C)(C)OC(=O)NCc1cc2c(cc1F)C(=O)N(C1CCC(=O)NC1=O)C2 (stereo not drawn) [FDAB-5]	–
10 to 100	50 to 80	NCc1cc2c(cc1F)C(=O)N(C1CCC(=O)NC1=O)C2 (stereo not drawn) [FDAB-6]	–
> 1000	< 25	CC(C)(C)OC(=O)NCc1cc(F)c2c(c1)CN(C1CCC(=O)NC1=O)C2=O (stereo not drawn) [FDAB-8]	–
> 1000	< 25	CC(C)(C)OC(=O)NCc1ccc2c(c1Cl)CN(C1CCC(=O)NC1=O)C2=O (stereo not drawn) [FDAB-11]	–
> 1000	< 25	N#Cc1cc2c(cc1Cl)C(=O)N(C1CCC(=O)NC1=O)C2 (stereo not drawn) [FDAB-13]	–
> 1000	< 25	CC(C)(C)OC(=O)NCc1cc2c(cc1Cl)C(=O)N(C1CCC(=O)NC1=O)C2 (stereo not drawn) [FDAB-14]	–
> 1000	< 25	NCc1cc2c(cc1Cl)C(=O)N(C1CCC(=O)NC1=O)C2 (stereo not drawn) [FDAB-15]	–
10 to 100	> 80	O=C1CCC(N2Cc3cc(CNC(=O)c4ccc(Cl)cc4)c(F)cc3C2=O)C(=O)N1 (stereo not drawn) [FDAB-23]	–
> 1000	< 25	O=C1CCC(N2Cc3cc(CNC(=O)c4ccccc4)c(F)cc3C2=O)C(=O)N1 (stereo not drawn) [FDAB-25]	–
> 1000	< 25	O=C1CCC(N2Cc3cc(CNC(=O)c4ccc(F)cc4)c(F)cc3C2=O)C(=O)N1 (stereo not drawn) [FDAB-26]	–
> 1000	< 25	Nc1ccc(C(=O)NCc2cc3c(cc2F)C(=O)N(C2CCC(=O)NC2=O)C3)cc1 (stereo not drawn) [FDAB-27]	–
> 1000	< 25	O=C1CCC(N2Cc3cc(CNC(=O)c4ccc(O)cc4)c(F)cc3C2=O)C(=O)N1 (stereo not drawn) [FDAB-28]	–
> 1000	< 25	O=C1CCC(N2Cc3cc(CNC(=O)c4ccccn4)c(F)cc3C2=O)C(=O)N1 (stereo not drawn) [FDAB-29]	–
> 1000	< 25	O=C1CCC(N2Cc3cc(CNC(=O)c4cccnc4)c(F)cc3C2=O)C(=O)N1 (stereo not drawn) [FDAB-30]	–
> 1000	< 25	O=C1CCC(N2Cc3cc(CNC(=O)c4ccncc4)c(F)cc3C2=O)C(=O)N1 (stereo not drawn) [FDAB-31]	–
> 1000	< 25	Nc1cccc(C(=O)NCc2cc3c(cc2F)C(=O)N(C2CCC(=O)NC2=O)C3)c1 (stereo not drawn) [FDAB-34]	–
> 1000	< 25	O=C1CCC(N2Cc3cc(CNC(=O)c4cccc(O)c4)c(F)cc3C2=O)C(=O)N1 (stereo not drawn) [FDAB-36]	–
10 to 100	50 to 80	COc1cccc(C(=O)NCc2cc3c(cc2F)C(=O)N(C2CCC(=O)NC2=O)C3)c1 (stereo not drawn) [FDAB-37]	–
> 1000	< 25	O=C1CCC(N2Cc3cc(CNC(=O)c4ccncn4)c(F)cc3C2=O)C(=O)N1 (stereo not drawn) [FDAB-38]	–
> 1000	< 25	O=C1CCC(N2Cc3cc(CNC(=O)C4CC4)c(F)cc3C2=O)C(=O)N1 (stereo not drawn) [FDAB-40]	–
> 1000	< 25	O=C1CCC(N2Cc3cc(CNC(=O)C4CCCC4)c(F)cc3C2=O)C(=O)N1 (stereo not drawn) [FDAB-41]	–
> 1000	< 25	O=C1CCC(N2Cc3cc(CNC(=O)C4CCCCC4)c(F)cc3C2=O)C(=O)N1 (stereo not drawn) [FDAB-42]	–
> 1000	< 25	O=C1CCC(N2Cc3cc(CNC(=O)c4cnco4)c(F)cc3C2=O)C(=O)N1 (stereo not drawn) [FDAB-43]	–
> 1000	< 25	O=C1CCC(N2Cc3cc(CNC(=O)c4cncs4)c(F)cc3C2=O)C(=O)N1 (stereo not drawn) [FDAB-44]	–
1 to 10	–	O=C1CCC(N2Cc3cc(CNC(=O)Nc4ccc(CCO)c(Cl)c4)ccc3C2=O)C(=O)N1 (stereo not drawn) [FDAB-185]	–

From US20250282746A1, “HALOGEN-SUBSTITUTED ISOINDOLINE COMPOUND AND USE THEREOF” (CHENGDU FENDI PHARMACEUTICAL CO., LTD., priority 2022, published 2025)
